# Publication PMC9960821, “Evaluation of Rhenium and Technetium-99m Complexes Bearing Quinazoline Derivatives as Potential EGFR Agents” (Molecules, 2023)
# Like-named read-outs stand apart in the source and are kept apart here.
# What was measured:
# [1] = tested on: A431 cells; assay: In vitro growth inhibition (MTT assay) in A431 cells; format: cell-based, human; settings: read-out: Inhibition of cell growth IC50
# Procedure: This assay measures the amount of MTT reduction by mitochondrial dehydrogenase and assumes that cell viability (corresponding to the reductive activity) is proportional to the production of purple formazan that is measured spectrophotometrically.
# (§1) Cell line. The in vitro biological studies were established using the human epidermoid vulvar carcinoma A431 cell line, which overexpresses EGFR. Cells were available in our laboratory from previous studies. Cells were maintained in high glucose D-MEM medium with L-glutamine (PAA Laboratories GmbH, Pasching, Austria) and supplemented with 10% fetal bovine serum (PAA Laboratories GmbH) and penicillin/streptomycin (PAA Laboratories GmbH) 100 UI/100 μg per mL, in 5% CO2 incubator at 37 °C.
# The in vitro cytotoxicity of the synthesized ligands and their rhenium complexes was determined by the MTT method. The A431 cells were seeded in 96-well plates at a density of 4000 cells per 100 μL per well and incubated for 24 h so that they were attached to the wells. After 24 h, the studied derivatives were dissolved in DMSO ([…]) and further diluted in D-MEM in various concentrations. […] The six concentrations of each derivative and control existed quadrupled into the experiment. The derivatives and the cells were incubated for 72 h. After three days, the medium was removed, and the cells were incubated […] in the presence of MTT (1 mg/mL 3-[4,5-dimethylthiazol-2-yl]-2,5-diphenyltetrazolium bromide, Sigma, Saint Louis, MO, USA) in RPMI (PAA Laboratories GmbH, Pasching, Austria) without phenol red for 2 h at 37 °C. The MTT solution was removed, and 2-propanol was added to each well to stop the cleavage of the tetrazolium ring by dehydrogenase enzymes which convert MTT to an insoluble purple formazan in living cells. The plates were then agitated at room temperature for about 15–20 min, and the level of the colored formazan derivative was determined by measuring optical density (OD) on an ELISA reader (540/620 nm). […] Cell proliferation assay was performed three times for each compound.
# [2] = Stability of 99mTc complexes in reaction mixture and after isolation in PBS (RP-HPLC); format: physicochemical
# Procedure: (§2) The stability of complexes 5b and 7b was studied in their reaction mixture and after isolation by HPLC for up to 24 h.
# Stability of ^99mTc complexes in the reaction mixture: Samples of the ^99mTc complexes’ reaction mixture were stored at room temperature for up to 24 h. At 1, 6, and 24 h intervals, 100 μL of each sample was removed and analyzed by RP-HPLC.
# Stability of isolated ^99mTc complexes: Purification and isolation of 5b and 7b complexes were performed by injection of the reaction mixture into RP-HPLC and isolation of the eluted compounds’ peaks, corresponding to the elution time of each complex. Followingly, 0.1 M PBS buffer solution (900 µL) was added to a vial containing 100 µL (50–120 MBq) of the isolated technetium-99m complex. The sample was incubated at 37 °C for up to 24 h and analyzed by RP-HPLC at 1, 6, and 24 h intervals.
# [3] = Cysteine and histidine challenge of 99mTc complexes (RP-HPLC); format: physicochemical
# Procedure: as §2
# Cysteine and histidine challenge: Histidine (100 µL, 1 × 10^−2 M) or cysteine (100 µL, 1 × 10^−2 M) solution in 0.1 M PBS was mixed with 100 µL (50–120 MBq) of the RP-HPLC isolated ^99mTc complexes in 0.1 M PBS (800 µL). The mixtures were incubated at 37 °C for up to 24 h and analyzed by RP-HPLC at 1, 6, and 24 h intervals.
# [4] = Lipophilicity, shake-flask distribution coefficient; format: physicochemical; settings: n-octanol/0.1 M phosphate buffer pH 7.4
# Procedure: The pharmacokinetic profile of the studied compounds could be affected by their lipophilicity, expressed as the logarithm of the distribution coefficient (log Do/w). The lipophilicity of complexes 5b and 7b was determined in physiological conditions (n-octanol/0.1 M phosphate buffer pH 7.4). […] The presence of the pyridine ring in the chemical structure of complex […] increases the log D7.4 value, as expected.
# The distribution coefficient of the 5b and 7b complexes was determined with the shake-flask method. The RP-HPLC isolated ^99mTc complexes (20 μL, ~75 kBq) were mixed with 2 mL of 1-octanol and 2 mL of phosphate buffer solution (PBS, 0.1 M, pH 7.4) in a centrifuge tube. The mixture was vortexed at room temperature for 2 min and centrifuged at 5000 rpm for 10 min. The radioactivity of each phase (200 μL) was counted in a gamma counter. The distribution coefficient was calculated by dividing the cpm/mL in the 1-octanol phase by those in the buffer, and the results were expressed as logD7.4. Each experiment was run in triplicate.
# [5] = Biodistribution in healthy Swiss Albino mice after intravenous injection; format: in vivo; settings: i.v.
# Procedure: The pharmacokinetic profile of complexes 5b and 7b was evaluated in Swiss Albino healthy male mice at 5, 60, and 240 min post intravenous injection. Table 4 presents the results of the biodistribution studies expressed as % Injected Dose (ID)/g ± Standard Deviation (±SD). […] The high lipophilicity characterizing both complexes justifies the rapid hepatobiliary excretion, given the decreasing activity in the liver and the increasing amount of radioactivity in the intestines. Complex 5b presented faster clearance and elimination in the intestines at 60 min p.i. 34.05% of the radioactivity excreted, compared to 29.89% at 240 min p.i. of complex 7b. Radioactivity in the urine remained low in general, however, the lower logD7.4 value of complex 7b explains the relatively higher activity in the urines (7.88 ± 0.71%) as it is slightly more hydrophilic than 5b. Moreover, the low uptake in the brain indicates almost no blood-brain barrier penetration, although the complexes have favorable physicochemical characteristics.
# All the biodistribution experiments were carried out in compliance with the national laws and European protocols (2010/63/EU) related to the conduct of animal experimentation. Nine healthy Swiss Albino mice (male, 30 ± 3 g), divided into three groups of three, were injected with the HPLC-purified 5b or 7b complex in saline with 10% EtOH (0.1 mL, ~75 kBq) through the tail vein. For each group, the animals were sacrificed by cardiectomy under slight ether anesthesia 5, 60, and 240 min after the injection. The organs of interest were excised, weighed, and counted in an automatic gamma counter. The bladder and excreted urine were not weighed. The stomach and intestines were not emptied of food contents prior to radioactivity measurements. The percentage of injected dose per organ (%ID/organ) was calculated by comparison of sample radioactivity to standard solutions containing 10% of the injected dose. The calculation for blood and muscle was based on measured activity, sample weight, and body composition data (considering that blood and muscle comprise 7 and 43% of body weight). The percentage of injected dose per gram (%ID/g) was calculated by dividing the %ID/organ by the weight of the organ or tissue.
# [6] = target: T1, EGFR (Homo sapiens, UniProt P00533); assay: Inhibition of EGFR phosphorylation in intact A431 cells (immunoblotting); format: cell-based; settings: 2 h compound then EGF 20 ng/mL 5 min, Western blot
# T1 construct: by immunoblotting in intact A431 cells that overexpress EGFR; endogenous in cells; host or cells: A431 (human epidermoid vulvar carcinoma)
# Procedure: Complex 5a was evaluated for its potency to inhibit EGFR phosphorylation in various concentrations by immunoblotting in intact A431 cells that overexpress EGFR (Figure 3). In addition, the percentage of EGFR phosphorylation was calculated, and a dose-response curve was performed (Figure 4).
# as §1
# The inhibition of EGFR phosphorylation was studied as described in the literature. A431 cells (5 × 10^5 cells/well) were seeded in 6-well plates and incubated for 24 h. Then, the medium was replaced with fresh medium without fetal bovine serum. […] Protein band quantification was performed using Image-J software, and the percentage of EGFR phosphorylation inhibition was calculated using GraphPad Prism 9.0 software.
# [7] = Homo sapiens, A-431, A431 cancer cell line, MTT, 72 h, mean ± SD of three experiments
# [8] = A431 cancer cell line, MTT, 72 h, mean ± SD of three experiments
# T1 sequence (P00533 25-1210): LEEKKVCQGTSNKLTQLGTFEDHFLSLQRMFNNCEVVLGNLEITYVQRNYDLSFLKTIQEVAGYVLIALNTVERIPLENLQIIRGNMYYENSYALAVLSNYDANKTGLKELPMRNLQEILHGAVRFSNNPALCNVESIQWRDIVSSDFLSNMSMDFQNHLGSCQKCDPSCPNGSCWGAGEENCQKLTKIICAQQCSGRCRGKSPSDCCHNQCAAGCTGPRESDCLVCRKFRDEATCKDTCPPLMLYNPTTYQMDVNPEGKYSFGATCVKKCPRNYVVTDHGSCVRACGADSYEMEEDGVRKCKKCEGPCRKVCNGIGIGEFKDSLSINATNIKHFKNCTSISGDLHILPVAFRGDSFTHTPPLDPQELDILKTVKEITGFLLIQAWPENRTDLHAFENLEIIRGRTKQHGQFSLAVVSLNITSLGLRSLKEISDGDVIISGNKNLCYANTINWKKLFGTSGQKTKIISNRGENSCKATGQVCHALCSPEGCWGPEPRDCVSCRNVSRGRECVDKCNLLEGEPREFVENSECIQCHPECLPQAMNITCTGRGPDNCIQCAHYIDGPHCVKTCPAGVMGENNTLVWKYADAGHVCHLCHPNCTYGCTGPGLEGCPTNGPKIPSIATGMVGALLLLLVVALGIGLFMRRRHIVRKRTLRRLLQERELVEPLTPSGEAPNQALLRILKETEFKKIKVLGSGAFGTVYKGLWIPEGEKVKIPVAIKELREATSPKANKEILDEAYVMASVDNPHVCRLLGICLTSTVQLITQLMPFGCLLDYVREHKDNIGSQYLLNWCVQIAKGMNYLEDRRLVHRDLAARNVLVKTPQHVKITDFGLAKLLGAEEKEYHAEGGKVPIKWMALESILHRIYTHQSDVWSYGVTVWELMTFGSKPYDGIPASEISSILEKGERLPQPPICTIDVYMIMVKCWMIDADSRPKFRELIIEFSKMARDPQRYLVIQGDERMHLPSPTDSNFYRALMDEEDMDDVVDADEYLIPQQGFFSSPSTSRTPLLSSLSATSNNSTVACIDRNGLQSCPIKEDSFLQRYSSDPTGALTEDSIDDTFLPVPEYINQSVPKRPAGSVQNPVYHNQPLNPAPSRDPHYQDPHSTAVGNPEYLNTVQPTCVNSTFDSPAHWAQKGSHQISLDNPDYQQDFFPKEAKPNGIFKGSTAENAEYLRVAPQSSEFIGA
smiles,measurement,setting,value
"NC(CSCCCCCC(=O)Nc1ccc2ncnc(Nc3cccc(Br)c3)c2c1)C(=O)O (stereo not shown) [Compound 6, 6-(cysteine-N-hexanoyl)-4-[(3-bromophenyl)amino]-quinazoline]",IC50,[1]; [7],4.12 ± 0.92 µM
"NC(CSCCCCCC(=O)Nc1ccc2ncnc(Nc3cccc(Br)c3)c2c1)C(=O)[O-].[C-]#[O+].[C-]#[O+].[C-]#[O+].[Re+] (stereo not shown) [Compound 7a, fac-[Re(SNO)(CO)3]]",IC50,[1]; [8],29.6 ± 3.63 µM
NC(CSCCCCCC(=O)Nc1ccc2ncnc(Nc3cccc(Br)c3)c2c1)C(=O)[O-].[99Tc+].[C-]#[O+].[C-]#[O+].[C-]#[O+] (stereo not shown) [Compound 7b],%RCP in PBS for 24 h,"[2]; 0.1 M PBS, 37 °C, 24 h",99 ± 1%
same,Stability in reaction mixture and after isolation by HPLC,"[2]; up to 24 h, room temperature or 37 °C",No decomposition
same,Stability after incubation with excess of histidine and cysteine,"[3]; 24 h, molar ratio 1/1000, HPLC",> 95%
same,%RCP in Cysteine for 24 h,"[3]; excess cysteine, 37 °C",95 ± 1%
same,%RCP in Histidine for 24 h,"[3]; excess histidine, 37 °C",95 ± 2%
same,log D7.4,[4],2.87 ± 0.32
same,In vivo stability (low spleen and stomach radioactivity; no oxidation to pertechnetate/TcO2),[5],stable in vivo
same,Blood %Injected Dose/g,[5]; 5 min,1.06 ± 0.29 %Injected Dose/g
same,Brain %Injected Dose/g,[5]; 5 min,0.06 ± 0.02 %Injected Dose/g
same,Heart %Injected Dose/g,[5]; 5 min,0.97 ± 0.29 %Injected Dose/g
same,Intestines %Injected Dose/g,[5]; 5 min,10.62 ± 1.17 %Injected Dose/g
same,Kidneys %Injected Dose/g,[5]; 5 min,13.04 ± 2.34 %Injected Dose/g
same,Liver %Injected Dose/g,[5]; 5 min,23.33 ± 3.63 %Injected Dose/g
same,Lungs %Injected Dose/g,[5]; 5 min,1.19 ± 0.22 %Injected Dose/g
same,Muscle %Injected Dose/g,[5]; 5 min,0.29 ± 0.11 %Injected Dose/g
same,Pancreas %Injected Dose/g,[5]; 5 min,1.10 ± 0.11 %Injected Dose/g
same,Spleen %Injected Dose/g,[5]; 5 min,0.92 ± 0.32 %Injected Dose/g
same,Stomach %Injected Dose/g,[5]; 5 min,1.04 ± 0.10 %Injected Dose/g
same,Urine % ID,[5]; 5 min,0.08 ± 0.06 % ID
same,Blood %Injected Dose/g,[5]; 60 min,0.30 ± 0.09 %Injected Dose/g
same,Brain %Injected Dose/g,[5]; 60 min,0.02 ± 0.01 %Injected Dose/g
same,Heart %Injected Dose/g,[5]; 60 min,0.18 ± 0.03 %Injected Dose/g
same,Intestines %Injected Dose/g,[5]; 60 min,26.81 ± 1.61 %Injected Dose/g
same,Kidneys %Injected Dose/g,[5]; 60 min,1.94 ± 0.28 %Injected Dose/g
same,Liver %Injected Dose/g,[5]; 60 min,4.88 ± 0.47 %Injected Dose/g
same,Lungs %Injected Dose/g,[5]; 60 min,0.26 ± 0.04 %Injected Dose/g
same,Muscle %Injected Dose/g,[5]; 60 min,0.13 ± 0.12 %Injected Dose/g
same,Pancreas %Injected Dose/g,[5]; 60 min,0.24 ± 0.05 %Injected Dose/g
same,Spleen %Injected Dose/g,[5]; 60 min,0.11 ± 0.02 %Injected Dose/g
same,Stomach %Injected Dose/g,[5]; 60 min,0.97 ± 0.22 %Injected Dose/g
same,Urine % ID,[5]; 60 min,5.83 ± 0.02 % ID
same,Blood %Injected Dose/g,[5]; 240 min,0.18 ± 0.04 %Injected Dose/g
same,Brain %Injected Dose/g,[5]; 240 min,0.07 ± 0.06 %Injected Dose/g
same,Heart %Injected Dose/g,[5]; 240 min,0.12 ± 0.00 %Injected Dose/g
same,Intestines %Injected Dose/g,[5]; 240 min,29.89 ± 2.41 %Injected Dose/g
same,Kidneys %Injected Dose/g,[5]; 240 min,1.12 ± 0.03 %Injected Dose/g
same,Liver %Injected Dose/g,[5]; 240 min,4.46 ± 0.16 %Injected Dose/g
same,Lungs %Injected Dose/g,[5]; 240 min,0.25 ± 0.08 %Injected Dose/g
same,Muscle %Injected Dose/g,[5]; 240 min,0.03 ± 0.00 %Injected Dose/g
same,Pancreas %Injected Dose/g,[5]; 240 min,0.12 ± 0.02 %Injected Dose/g
same,Spleen %Injected Dose/g,[5]; 240 min,0.09 ± 0.02 %Injected Dose/g
same,Stomach %Injected Dose/g,[5]; 240 min,0.96 ± 0.06 %Injected Dose/g
same,Urine % ID,[5]; 240 min,7.88 ± 0.71 % ID
"O=C([O-])CN(CCCCCC(=O)Nc1ccc2ncnc(Nc3cccc(Br)c3)c2c1)Cc1ccccn1.[C-]#[O+].[C-]#[O+].[C-]#[O+].[Re+] [Compound 5a, fac-[Re(NNO)(CO)3]]",IC50,[1]; [8],8.85 ± 2.62 µM
same,IC50,[6],0.0261 µM
"Nc1ccc2ncnc(Nc3cccc(Br)c3)c2c1 [Compound 1, 6-amino-4-[(3-bromophenyl)amino] quinazoline, reference compound]",IC50,"[1]; Homo sapiens, A-431, 72 h",2.3 ± 0.3 µM
"CCOC(=O)CN(CCCCCC(=O)Nc1ccc2ncnc(Nc3cccc(Br)c3)c2c1)Cc1ccccn1 [Compound 4, 6-(pyridine-2-methyl N, N, acetic ethyl ester-hexanoyl)-4-[(3-bromophenyl)amino]-quinazoline]",IC50,[1]; [7],25.6 ± 3.87 µM
